# From paper PMC6332427, “Drug Discovery of Host CLK1 Inhibitors for Influenza Treatment” (Molecules, 2015)
# Values joined by “and” are separate entries in the source; they are usually repeats but may differ in a detail not shown here. Equal entries are not always repeated. Where two headings read alike, the source gives them in different places.
# How the values were obtained:
# MDCK cells [1] = assay: Cytotoxicity assay in MDCK cells (MTT, 72 h); settings: MDCK cells; for CC0 (maximal non-cytotoxic concentration) / CC50 (50% cytotoxic concentration): 72 h, MTT; for CC0 (maximal non-cytotoxic concentration): more than 90% cells viable
# [2] = Cytotoxicity assay in MDCK cells (MTT, 72 h); settings: dog
# recombinant human CLK1 = target: T1, recombinant human CLK1 (Homo sapiens, UniProt P49759); assay: CLK1 inhibitory assay (Kinase-Glo luminescent kinase assay, MBP substrate); assay type: biochemical
# T1 construct: The primer of human full length CLK1 gene was as follows; made in house; host or cells: Sf9 insect cells (baculovirus, pFastBac1)
# Protocol: The optimal conditions were dependent on the largest change in luminescence when comparing kinase reaction wells with control wells.
# The kinase assay in this study utilized appropriate concentration of recombinant purified protein CLK1 in the presence of MBP as the substrate, MgCl2, MnCl2, ATP in kinase buffer (10 mM Tris, 1 mM EGTA, 100 μM sodium orthovanadate, 10 μM p-nitrophenyl phosphate (PNP), pH7.4) in a reaction volume of 20 μL. The reaction system were incubated at 25 °C for appropriate time. The Kinase-Glo® Luminescent Kinase Assay Platform was used to measure kinase activity by quantitating the amount of ATP, the signals of which were recorded using PerkinElmer’s EnSpire Multilabel Plate Reader. All the above components were added to the plate by automatic dispenser (EDR-384S, BioTec, Tokyo, Japan). A series of parameters containing the amount of kinase (1.16–298 ng/mL), MBP (3.125–150 μg/mL), ATP (0.1–100 μM), Mg^2+ (0.01–100 mM), Mn^2+ (0.5–20 mM), the percentage of DMSO (0.03%–10%), reaction time and temperature were optimized respectively in order to get best performance. Z′ factor values was calculated as described.
# The inhibition percentage of the compounds against CLK1 were calculated according to the formula: (1) inhibition%=[(RLUsample−RLUpositive)/(RLUnegative−RLUpositive)]×100% where the RLUsample, RLUpositive, RLUnegative are the measured RLU values with treatment of test compounds, the wells free of test compounds, and that of without kinase, respectively.
# [3] = tested on: influenza virus A/PR/8/34 (H1N1); assay: organism not typed; settings: MDCK
# [4] = tested on: influenza virus A/PR/8/34 (H1N1); assay: in vitro; settings: for selectivity ratio at 24 h: MDCK, H1N1
# [5] = tested on: influenza virus A/PR/8/34 (H1N1); assay: microbe, parasite or virus in culture; settings: read-out: EC50s in time-of-addition assays
# MDCK cells [6] = settings: dog, 72 h
# in vitro = settings: dog
# CLK1 = settings: cited from earlier work
# [7] = tested on: influenza virus A/PR/8/34 (H1N1)
# [8] = 24 h, read-out: Simultaneous Treatment Assay EC50
# [9] = read-out: Post-Treatment Assay EC50
# [10] = read-out: Pre-Treatment Assay EC50
# [11] = Kinase-Glo assay, read-out: IC50 (converted)
# [12] = Post-Treatment Assay SI (selective index, CC50/EC50), post-treatment
# [13] = Pre-Treatment Assay SI (selective index, CC50/EC50), pre-treatment
# [14] = Simultaneous Treatment Assay SI (selective index, CC50/EC50), simultaneous treatment
# T1 sequence (P49759 whole entry): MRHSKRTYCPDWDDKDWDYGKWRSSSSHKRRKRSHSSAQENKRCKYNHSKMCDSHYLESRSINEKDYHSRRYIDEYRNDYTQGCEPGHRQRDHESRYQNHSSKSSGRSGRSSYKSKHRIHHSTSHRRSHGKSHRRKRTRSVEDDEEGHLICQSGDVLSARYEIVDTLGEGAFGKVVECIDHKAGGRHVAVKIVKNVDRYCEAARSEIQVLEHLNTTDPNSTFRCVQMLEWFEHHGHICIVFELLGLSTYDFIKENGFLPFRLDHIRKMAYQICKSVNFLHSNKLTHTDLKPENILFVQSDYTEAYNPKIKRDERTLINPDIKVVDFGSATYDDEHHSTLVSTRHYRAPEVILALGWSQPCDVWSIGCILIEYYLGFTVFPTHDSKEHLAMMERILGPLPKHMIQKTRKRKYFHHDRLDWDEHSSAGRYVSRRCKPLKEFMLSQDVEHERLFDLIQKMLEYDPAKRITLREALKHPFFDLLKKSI
Molecule,CC0 (maximal non-cytotoxic concentration) (MDCK cells [1]) [µg/mL],"IC50 (recombinant human CLK1; IC50, Kinase-Glo assay)","EC50 [3, 8] [µg/mL]","EC50 [3, 9] [µg/mL]","EC50 [3, 10] [µg/mL]","selectivity ratio at 24 h [4, 12]","selectivity ratio at 24 h [4, 13]",CC0 (maximal non-cytotoxic concentration) (MDCK cells [6]) [µg/mL],CC50 at 72 h (in vitro) [µg/mL],further results
O=c1c(-c2ccc(O)cc2)coc2cc(O)cc(O)c12 [Genistein],30,< 185 µM,> 30,> 30,> 30,,,,,CC50 at 72 h [2]: 75.6 µg/mL
"O=c1c(O)c(-c2ccc(O)cc2)oc2cc(O)cc(O)c12 [J10610, Kaempferol]",30,,12.3 ± 5.89,23.3 ± 1.08,5.16 ± 2.4,,,,,"selectivity ratio ([4]; Post-Treatment Assay SI (selective index, CC50/EC50)): 2.94; selectivity ratio ([4]; Pre-Treatment Assay SI (selective index, CC50/EC50)): 13.3; selectivity ratio ([4]; Simultaneous Treatment Assay SI (selective index, CC50/EC50)): 5.55; CC50 at 72 h ([2]; MDCK cells): 68.5 µg/mL; IC50 (recombinant human CLK1; Figure 6, Kinase-Glo assay, read-out: IC50 (converted)): 6.01 µM; IC50 (recombinant human CLK1; [11]): < 175 µM"
"O=C(Oc1cc(O)c2c(c1)O[C@H](c1cc(O)c(O)c(O)c1)[C@@H](O)C2)c1cc(O)c(O)c(O)c1 [J10688, Clypearin]",,,1.2 ± 0.28,18.1 ± 3.02,0.75 ± 0.13,> 11.1,> 267,100,> 200,"selectivity ratio at 24 h [4, 14]: > 167; IC50 (recombinant human CLK1; [11]): < 109 µM and 2.62 µM; EC50 ([5]; unidentified influenza virus, H1N1|PR/8, MDCK): < 20 µg/mL"
C/C=C/C(=O)c1c(O)c2c(c3c(-c4ccccc4)cc(=O)oc13)OC(C)(C)C=C2 [J10857],,,16.3 ± 2.29,14.7 ± 5.25,18.4 ± 13,5.3,4.22,30,77.7,"selectivity ratio at 24 h [4, 14]: 4.78; IC50 (recombinant human CLK1; [11]): < 129 µM"
Cc1c([N+](=O)[O-])c(O)c([N+](=O)[O-])c2oc(=O)c(C(=O)Nc3cccc(C(=O)O)c3)cc12 [J11534],30,< 116 µM,> 30,> 30,> 30,,,,,CC50 at 72 h [2]: 175 µg/mL
"O=C(O[C@@H]1O[C@@H]2COC(=O)c3cc(O)c(O)c(O)c3-c3c(cc(O)c(O)c3O)C(=O)O[C@H]([C@H]1O)[C@@H]2O)c1cc(O)c(O)c(O)c1 [J12098, Corilagin]",,< 78.8 µM and 0.599 µM,2 ± 2.22,5.91 ± 1.44,3.99 ± 3.72,26,38.5,30,154,"selectivity ratio at 24 h [4, 14]: 76.8; EC50 ([5]; MDCK): < 20 µg/mL"
"O=C(O[C@@H]1Cc2c(O)cc(O)cc2O[C@@H]1c1cc(O)c(O)c(O)c1)c1cc(O)c(O)c(O)c1 [J14080, Epigallocatechin gallate]",30,< 109 µM,14.9 ± 1.81,> 30,10.2 ± 6.22,,,,,CC50 at 72 h [2]: 71.1 µg/mL
"COc1cc(/C=C/c2cc(O)cc(O)c2)ccc1O [J14528, Isorhapontigenin]",,< 194 µM,> 30,> 30,5.98 ± 2.3,,13.9,30,83.4,
"Oc1cc(O)cc(/C=C/c2ccccc2)c1 [J14848, Pinosylvin]",,< 236 µM and 395 µM,5.28 ± 2.45,6.65 ± 4.3,7.54 ± 5.48,3.23,2.42,10,18.3,"selectivity ratio at 24 h [4, 14]: 3.46; concentration above which toxic effects occur (MDCK cells [6]): above 10 μg/mL"
"O=c1cc(-c2ccc(O)c(O)c2)oc2cc(O)cc(O)c12 [J20725, Luteolin]",10,,> 10,5.74 ± 0.54,> 10,4.33,,,,concentration above which toxic effects occur (MDCK cells [1]): above 10 μg/mL; CC50 at 72 h ([2]; MDCK cells): 24.9 µg/mL; IC50 (recombinant human CLK1; [11]): < 175 µM
"O=c1cc(-c2ccccc2)oc2c(O)c(O)cc(O)c12 [J21548, Norwogonin]",,< 185 µM,> 30,> 30,> 30,,,30,91.8,
"CCCOC(=O)c1cc(O)c(O)c(O)c1 [J25986, Propyl gallate]",30,,12.9 ± 8.06,3.42 ± 0.2,15.9 ± 6.94,53.2,11.4,,,"selectivity ratio at 24 h [4, 14]: 14.1; CC50 at 72 h ([2]; MDCK cells): 182 µg/mL; IC50 (recombinant human CLK1; [11]): < 236 µM"
COC(=O)c1cc(O)c(O)c(O)c1 [Methyl gallate],,< 272 µM,> 30,> 30,> 30,,,30,,CC50 at 72 h [2]: 69.5 µg/mL
c1csc(CNc2ncnc3ccc(-c4ccc5c(c4)OCO5)cc23)c1 [NCGC00010037],,,,,,,,,,IC50 (CLK1): 0.037 µM
"NC(=O)c1ncn([C@@H]2O[C@H](CO)[C@@H](O)[C@H]2O)n1 [Ribavirin, reference compound]",,,10.3 ± 2.38,13.8 ± 3.47,4.36 ± 0.99,,,,,CC50 at 72 h [2]: > 200 µg/mL
Chebulanin [J12133],30,,,,,,,,,"CC50 (50% cytotoxic concentration) (MDCK cells [1]): 90.27 µg/mL; IC50 (recombinant human CLK1; Kinase-Glo assay): lower than 50 μg/mL; Post-Treatment Assay EC50 ([7]; H1N1 (MOI 0.01) incubated with MDCK cells 2 h, then compound, 24 h, mean ± SD): 21.11 ± 11.15 µg/mL; Pre-Treatment Assay EC50 ([7]; H1N1 (MOI 0.01) pre-incubated with compound 2 h at 37 °C before addition to MDCK cells, 24 h, mean ± SD): 15.29 ± 10.35 µg/mL; Simultaneous Treatment Assay EC50 ([7]; compound added along with H1N1 (MOI 0.01) to MDCK cells, 24 h, mean ± SD): 9.84 ± 0.44 µg/mL; Post-Treatment Assay SI (selective index, CC50/EC50) ([7]; post-treatment, MDCK, H1N1): 4.28; Pre-Treatment Assay SI (selective index, CC50/EC50) ([7]; pre-treatment, MDCK, H1N1): 5.90; Simultaneous Treatment Assay SI (selective index, CC50/EC50) ([7]; simultaneous treatment, MDCK, H1N1): 9.17"
Hispidulin [J20353],30,,,,,,,,,CC50 (50% cytotoxic concentration) (MDCK cells [1]): 60.35 µg/mL; IC50 (recombinant human CLK1; Kinase-Glo assay): lower than 50 μg/mL; Post-Treatment Assay EC50 [7]: >30 µg/mL; Pre-Treatment Assay EC50 [7]: 18.89 ± 5.1 µg/mL; Simultaneous Treatment Assay EC50 [7]: 5.26 ± 2.48 µg/mL
